For experiment [1], the system named is OCI-AML2. In words: Cytotoxicity against human OCI-AML2 cells measured after 24 hrs by MTT assay. It is filed as functional, cell-based. The conditions noted are these: OCI-AML2, 24 h. For orientation: Tetrazolium dyes change colour on reduction, which living cells bring about.
In experiment [2] the test system is Klebsiella pneumoniae. Put plainly: Antibacterial activity against Klebsiella pneumoniae assessed as bacterial growth inhibition at 100 uM measured after 16 hrs by microplate reader assay. The experiment is classed as functional, organism-based.
For experiment [3], the system named is Staphylococcus aureus. In words: Antibacterial activity against methicillin-resistant Staphylococcus aureus assessed as bacterial growth inhibition at 100 uM measured after 16 hrs by microplate reader assay. It is filed as functional, organism-based.
The nature of experiment [4]: Inhibition of quorum sensing system in Pseudomonas aeruginosa PAO1 transfected with lasB-GFP at 10 uM by measuring reduction in fluorescence intensity up to 16 hrs by fluorescence assay relative to control.
Experiment [5] has as its system Escherichia coli. In words: Antibacterial activity against Escherichia coli assessed as bacterial growth inhibition at 100 uM measured after 16 hrs by microplate reader assay. The experiment is classed as functional, organism-based.
Experiment [6] relates to MCF7. In words: Cytotoxicity against human MCF7 cells measured after 24 hrs by MTT assay. It is filed as functional, cell-based. The following applies: MCF7, 24 h.
Experiment [7] deals with MOLT-4. Put plainly: Cytotoxicity against human MOLT4 cells measured after 24 hrs by MTT assay. The experiment is classed as functional, cell-based. The conditions noted are these: MOLT-4, 24 h.

Experimental findings from ChEMBL document CHEMBL4414661, “Trikoramide A, a Prenylated Cyanobactin from the Marine Cyanobacterium Symploca hydnoides” (J Nat Prod, 2019) are described below.

Calls of active or inactive are those of the source. The rule behind the calls is not given here. Numbered stars: 1 amine (or outer) side, 2 acyl side, 3 side chain; on linkers, the order of the positions; unused ones are H or OH. Square brackets hold non-standard residues; d marks the D form. Peptide text beside a SMILES is read from it. X1 = CC(C)=CC[C@@]12C[C@@H](C(=O)[*:2])N([*:1])[C@@H]1Nc1ccccc12

`CC(C)=CC[C@@]12C[C@H]3C(=O)N[C@@H](CC(C)C)C(=O)N[C@@H](Cc4ccccc4)C(=O)N4CCC[C@H]4C(=O)N[C@@H](CC(C)C)C(=O)N4CCC[C@H]4C(=O)N[C@@H](CC(C)C)C(=O)N4CCC[C@H]4C(=O)N[C@@H](C(C)C)C(=O)N4CCC[C@H]4C(=O)N3[C@@H]1Nc1ccccc12` (cyclo(FPLPLPVP[X1]L)): the IC50 (commonly the midpoint of a concentration-inhibition curve) in experiment [1] was determined as 8.2 µM; in experiment [6], 19 µM; in experiment [7], 5.75 µM. For the same compound, the result in experiment [2], in experiment [3] and in experiment [5] was inactive. Also, the inhibition (commonly the change of the read-out against control, counted positive when it falls) in experiment [4] was 26%.
